Source: patent US20240392241A1, “METHOD FOR PRODUCING CELL MASS INCLUDING PITUITARY TISSUE AND CELL MASS” (SUMITOMO CHEMICAL COMPANY, LIMITED, priority 2021, published 2024)

Experiments:
Type in all cases: cell-based
[1] = system: human iPS cells (1231A3 strain); test: Timing of JNK inhibitor addition in pituitary organoid differentiation, bright field observation (Example 2); settings: observed day 28
Description: (§1) In Example 2, according to step shown in FIG. 2A, a cell population including cells that constitute pituitary tissue was produced. Specifically, human iPS cells (1231A3 strain, obtained from RIKEN) were cultured under feeder-free conditions according to the method described in Scientific Reports, 4, 3594 (2014). As the feeder-free medium, StemFit medium was used and, as the feeder-free scaffold, Laminin 511-E8 was used.
Differentiation induction was performed under the same conditions as in Example 1 except for the condition of adding a JNK inhibitor, compared to the conditions of Example 1. As the condition for adding JNK inhibitor, conditions including addition of JNK—IN-8 (manufactured by Merck, 1 μM), which is a c-Jun N-terminal kinase (JNK) inhibitor, on days 0, 2, 6, 10, and 13 after the start of differentiation induction were compared with conditions without addition of JNK inhibitor. When the JNK inhibitor is added on days 2, 6, 10, and 13 after the start of differentiation induction, 2 μM was added to the medium when adding or replacing the medium, so that the final concentration in the well would be 1 μM.
On day 28 after the start of suspension culture, bright field observation by polarized illumination was performed using an inverted microscope (manufactured by KEYENCE CORPORATION, BIOREVO BZ-X800) (FIG. 2B).

[2] = system: human iPS cells (201B7 strain); test: Immunostaining of Pitx1, Lhx3 and E-cadherin in cell aggregates on day 29 (Example 3); settings: 1 μM from day 0
Description: as §1, with “3,” for “2,”, “3A,” for “2A,”, “(201B7” for “(1231A3”, “Kyoto University)” for “RIKEN)”
The aforementioned subconfluent human iPS cells were subjected to cell dispersion treatment using TrypLE Select, and further dispersed to single cells by pipetting operation. Thereafter, the aforementioned […] dispersed into single cells were suspended in 100 μl of a serum-free medium at 9000 cells per well of a non-cell-adhesive 96-well culture plate, and suspension cultured under the conditions of 37° C., 5% CO2. […]
The aforementioned cell aggregates on the 29th day after the start of differentiation induction were each fixed with 4% para-formaldehyde, and cryosections were prepared. […] After the primary antibody reaction, detection was performed using a secondary antibody (manufactured by Life Technologies) fluorescence-labeled with Alexa488, 555, and 647. […]

[3] = system: human iPS cells (201B7 strain); test: Immunostaining of ACTH and E-cadherin in cell aggregates on day 103 (Example 7)
Description: According to the steps shown in FIG. 10A, suspension culturing was performed using human iPS cells (201B7 strain) in the same manner as in Example 4, and continued until day 103. Using the obtained cell aggregates, cryosections were prepared in the same manner as in Example 3. The obtained sections were subjected to immunostaining using anti-ACTH antibody (manufactured by Fitzgerald Industries) and anti-E-cadherin antibody (manufactured by Takara Bio Inc.), and the nucleus was stained with DAPI. […] The scale bar at the bottom right of FIG. 10B indicates 200 μm.

Cc1cc(NC(=O)c2cccc(NC(=O)/C=C/CN(C)C)c2)ccc1Nc1nccc(-c2cccnc2)n1 [JNK—IN-8, (E)-3-(4-(dimethylamino)but-2-enamido)-N-(3-methyl-4-((4-(pyridin-3-yl)pyrimidin-2-yl)amino)phenyl)benzamide]
formation of nonneural epithelium/pituitary vs no addition ([1]; JNK—IN-8 1 μM added on days 0, 2, and 6 after start of differentiation induction): formed more efficiently
formation of nonneural epithelium/pituitary vs no addition ([1]; JNK—IN-8 1 μM added on days 10 and 13 after start of differentiation): no difference
number of cells positive for Pitx1 and Lhx3 vs non-addition control [2]: higher
proportion of the surface of the cell mass covered with E-Cadherin-positive epithelial tissue vs non-addition control [2]: higher
proportion of ACTH-positive cells in the entire cell aggregate ([3]; JNKi(+), mean±SEM, n=8-12): 42.2±4.4 % of total cells
proportion of E-cadherin-positive cells in the layer covering the surface of cell aggregates vs non-addition control ([3]; JNK—IN-8 added): higher
